The values below come from publication doi:10.1101/2024.10.07.617055v4 (biorxiv, 2026).

Test [1] concerns 6H5L_RA1. Nature of the test: retro-aldol fluorescence assay. The settings on record: 50 mM sodium phosphate, 150 mM NaCl, 7.5% DMSO, pH 8, 29 °C. The test is classed as biochemical, synthetic construct.
Test [2] has as its system 6H5L_RA2. Nature of the test: retro-aldol fluorescence assay. The test is classed as biochemical, synthetic construct. Conditions: 50 mM sodium phosphate, 150 mM NaCl, 7.5% DMSO, pH 8, 29 °C.
Test [3] deals with 6H5L. The settings on record: 6H5L_K223; 50 mM sodium phosphate, 150 mM NaCl, 7.5% DMSO, pH 8, 29 °C.
Test [4] has as its system 6H5L_Top. Nature of the test: retro-aldol fluorescence assay. Conditions: 50 mM sodium phosphate, 150 mM NaCl, 7.5% DMSO, pH 8, 29 °C. The test is classed as biochemical, synthetic construct.
Test [5] deals with 6H5L. Nature of the test: retro-aldol fluorescence assay. Type of test: biochemical, synthetic construct. The settings on record: 50 mM sodium phosphate, 150 mM NaCl, 7.5% DMSO, pH 8, 29 °C.

SMILES strings stand for the structures. Read-outs that look alike come from different tables or passages of the source.

As to `COc1ccc2cc(C(O)CC(C)=O)ccc2c1` (racemic) [compound 3, 4-hydroxy-4-(6-methoxy-2-naphthyl)-2-butanone], the Km is 1.04 ± 0.128 mM in test [1]; 1.55 ± 0.225 mM in test [2]; 967 ± 211 µM in test [3]; 453 ± 49.3 µM in test [4]; 371 ± 62 µM in test [5].
